These results are taken from ChEMBL document CHEMBL1909046, “DrugMatrix in vitro pharmacology data”.

The structures appear in SMILES notation. Where a SMILES comes first, the peptide text is derived from it. Bridges are numbered along the chain shown (N, C = ends). [ ]: non-standard residue; d: D form. The star is where a group is joined. Ileψ(thiazoline)Cys = CC[C@H](C)[C@H](N)C1=N[C@H](C(=O)*)CS1; dOrn = NCCC[C@@H](N)C(=O)O

Data set [1] is described as follows: DRUGMATRIX: Calcium Channel Type L, Benzothiazepine radioligand binding (ligand: [3H] Diltiazem). In kind it is cell membranes, Rattus norvegicus, Wistar, Brain, Membrane. The conditions noted are these: Not Active = under 50% inhibition at 10 µM.
Data set [2] has as its target Carbonic anhydrase 2 (Homo sapiens, UniProt P00918). Put plainly: DRUGMATRIX: Carbonic Anhydrase II enzyme inhibition (substrate: 4-Nitrophenyl acetate (4-NPA)). The data set is classed as tissue-based, Erythrocyte. The conditions noted are these: Not Active = under 50% inhibition at 10 µM.
The nature of data set [3]: DRUGMATRIX: Glutamate, AMPA radioligand binding (ligand: [3H] AMPA). In kind it is cell membranes, Rattus norvegicus, Wistar, Cerebral cortex, Membrane. The conditions noted are these: Not Active = under 50% inhibition at 10 µM.
Data set [4] in a line: DRUGMATRIX: Leukotriene, BLT (LTB4) radioligand binding (ligand: [3H]LTB4). The data set is classed as cell membranes, Membrane. The conditions noted are these: u-937; Not Active = under 50% inhibition at 10 µM.
Data set [5] concerns the target T1, Cysteinyl leukotriene receptor 1 (Homo sapiens, UniProt Q9Y271). Further: in other assays of this panel Not Active means under 50% inhibition at 10 µM.
T1 sequence (Q9Y271 whole entry): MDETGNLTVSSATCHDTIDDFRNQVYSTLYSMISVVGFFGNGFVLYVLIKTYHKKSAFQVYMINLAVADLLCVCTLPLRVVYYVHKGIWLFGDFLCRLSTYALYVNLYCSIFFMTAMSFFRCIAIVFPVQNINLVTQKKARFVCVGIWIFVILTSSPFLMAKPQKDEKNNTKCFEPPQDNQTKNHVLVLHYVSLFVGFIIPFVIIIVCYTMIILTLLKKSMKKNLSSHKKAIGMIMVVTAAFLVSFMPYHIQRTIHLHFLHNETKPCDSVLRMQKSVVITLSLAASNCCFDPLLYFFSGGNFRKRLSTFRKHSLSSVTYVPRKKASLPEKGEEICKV
The data set is classed as cell membranes, CHO-K1, Membrane. Particulars: cho-k1.

In data set [6] the target is T2, Amine oxidase [flavin-containing] A (Homo sapiens, UniProt P21397).
T2 sequence (P21397 whole entry): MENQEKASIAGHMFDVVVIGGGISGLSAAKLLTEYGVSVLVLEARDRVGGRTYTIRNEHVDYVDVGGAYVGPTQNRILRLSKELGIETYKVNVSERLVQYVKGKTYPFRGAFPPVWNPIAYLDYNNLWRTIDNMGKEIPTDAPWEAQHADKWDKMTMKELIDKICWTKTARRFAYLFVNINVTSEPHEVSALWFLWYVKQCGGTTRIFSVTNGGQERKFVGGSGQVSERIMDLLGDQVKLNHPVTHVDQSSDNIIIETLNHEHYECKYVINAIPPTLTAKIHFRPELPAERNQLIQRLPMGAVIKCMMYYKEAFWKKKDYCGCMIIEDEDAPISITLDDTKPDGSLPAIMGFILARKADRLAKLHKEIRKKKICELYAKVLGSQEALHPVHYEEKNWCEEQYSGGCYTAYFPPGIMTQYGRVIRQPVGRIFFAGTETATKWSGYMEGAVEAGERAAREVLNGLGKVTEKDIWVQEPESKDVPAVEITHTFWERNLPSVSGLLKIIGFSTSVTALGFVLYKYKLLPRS
Put plainly: DRUGMATRIX: Monoamine Oxidase MAO-A enzyme inhibition (substrate: Kynuramine). Further details: species or system BTI-TN-5B1-4. The conditions noted are these: bti-tn-5b1-4; Not Active = under 50% inhibition at 10 µM.

In data set [7] the target is T3, Neuropeptide Y receptor type 1 (Homo sapiens, UniProt P25929). Further: in other assays of this panel Not Active means under 50% inhibition at 10 µM.
T3 sequence (P25929 whole entry): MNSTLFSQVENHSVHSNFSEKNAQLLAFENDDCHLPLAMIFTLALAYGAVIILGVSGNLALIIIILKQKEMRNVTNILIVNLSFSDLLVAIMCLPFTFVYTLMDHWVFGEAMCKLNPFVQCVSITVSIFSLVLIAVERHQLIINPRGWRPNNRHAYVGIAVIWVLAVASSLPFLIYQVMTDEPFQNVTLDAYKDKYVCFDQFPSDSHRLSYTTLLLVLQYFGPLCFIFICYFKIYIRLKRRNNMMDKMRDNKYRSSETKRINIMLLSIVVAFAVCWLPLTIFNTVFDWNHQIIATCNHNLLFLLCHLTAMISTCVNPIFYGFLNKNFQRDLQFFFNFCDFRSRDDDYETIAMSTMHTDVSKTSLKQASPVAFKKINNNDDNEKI
The data set is classed as cell membranes, Membrane. The conditions noted are these: sk-n-mc.

Data set [8] has as its target cGMP-specific 3',5'-cyclic phosphodiesterase (Homo sapiens, UniProt O76074). Nature of the data set: DRUGMATRIX: Phosphodiesterase PDE5 enzyme inhibition (substrate: [3H]cGMP + cGMP). The data set is classed as tissue-based, Platelet. The conditions noted are these: platelet; Not Active = under 50% inhibition at 10 µM.
Data set [9] concerns the target Protein kinase C alpha type (Homo sapiens, UniProt P17252). In kind it is cell-based. The conditions noted are these: sf9.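 Further: inhibition of PKCalpha kinase activity measured in an enzyme assay with histone as the phosphorylation substrate; in other assays of this panel Not Active means under 50% inhibition at 10 µM.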
Data set [10] has as its target T4, Cytochrome P450 1A2 (Homo sapiens, UniProt P05177). Further: in other assays of this panel Not Active means under 50% inhibition at 10 µM.
T4 sequence (P05177 whole entry): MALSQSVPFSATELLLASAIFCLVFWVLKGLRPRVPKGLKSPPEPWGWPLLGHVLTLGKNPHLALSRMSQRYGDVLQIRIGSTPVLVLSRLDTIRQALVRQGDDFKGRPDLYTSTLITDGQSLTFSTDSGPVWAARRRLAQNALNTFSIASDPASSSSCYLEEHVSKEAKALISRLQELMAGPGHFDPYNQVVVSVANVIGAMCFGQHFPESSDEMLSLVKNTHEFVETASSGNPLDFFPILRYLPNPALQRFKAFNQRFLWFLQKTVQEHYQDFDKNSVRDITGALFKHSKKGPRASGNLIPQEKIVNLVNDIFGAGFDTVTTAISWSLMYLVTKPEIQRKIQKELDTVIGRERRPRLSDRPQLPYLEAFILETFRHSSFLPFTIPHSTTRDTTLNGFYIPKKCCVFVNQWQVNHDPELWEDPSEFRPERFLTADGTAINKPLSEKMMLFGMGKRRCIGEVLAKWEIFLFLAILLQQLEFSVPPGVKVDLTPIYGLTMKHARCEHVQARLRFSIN
The conditions noted are these: bti-tn-5b1-4.

Data set [11] concerns the target Cytochrome P450 2D6 (Homo sapiens, UniProt P10635). Particulars: bti-tn-5b1-4. Further: in other assays of this panel Not Active means under 50% inhibition at 10 µM.
Data set [12] addresses Estrogen receptor beta (Homo sapiens, UniProt Q92731). Particulars: sf9.

Sequence of Cytochrome P450 2D6 (P10635 whole entry): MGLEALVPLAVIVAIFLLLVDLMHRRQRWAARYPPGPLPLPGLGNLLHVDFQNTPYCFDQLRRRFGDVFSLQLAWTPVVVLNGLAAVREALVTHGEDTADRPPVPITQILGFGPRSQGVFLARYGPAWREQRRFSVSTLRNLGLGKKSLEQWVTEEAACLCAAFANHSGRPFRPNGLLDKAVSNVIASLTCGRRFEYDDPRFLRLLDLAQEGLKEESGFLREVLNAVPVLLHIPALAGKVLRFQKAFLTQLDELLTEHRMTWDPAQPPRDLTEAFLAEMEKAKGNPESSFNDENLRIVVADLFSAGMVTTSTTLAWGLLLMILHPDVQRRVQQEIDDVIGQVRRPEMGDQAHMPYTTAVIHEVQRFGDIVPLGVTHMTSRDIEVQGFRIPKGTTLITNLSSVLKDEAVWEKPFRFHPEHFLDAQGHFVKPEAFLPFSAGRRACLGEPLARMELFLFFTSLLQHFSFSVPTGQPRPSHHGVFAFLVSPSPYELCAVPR
Sequence of Estrogen receptor beta (Q92731 whole entry): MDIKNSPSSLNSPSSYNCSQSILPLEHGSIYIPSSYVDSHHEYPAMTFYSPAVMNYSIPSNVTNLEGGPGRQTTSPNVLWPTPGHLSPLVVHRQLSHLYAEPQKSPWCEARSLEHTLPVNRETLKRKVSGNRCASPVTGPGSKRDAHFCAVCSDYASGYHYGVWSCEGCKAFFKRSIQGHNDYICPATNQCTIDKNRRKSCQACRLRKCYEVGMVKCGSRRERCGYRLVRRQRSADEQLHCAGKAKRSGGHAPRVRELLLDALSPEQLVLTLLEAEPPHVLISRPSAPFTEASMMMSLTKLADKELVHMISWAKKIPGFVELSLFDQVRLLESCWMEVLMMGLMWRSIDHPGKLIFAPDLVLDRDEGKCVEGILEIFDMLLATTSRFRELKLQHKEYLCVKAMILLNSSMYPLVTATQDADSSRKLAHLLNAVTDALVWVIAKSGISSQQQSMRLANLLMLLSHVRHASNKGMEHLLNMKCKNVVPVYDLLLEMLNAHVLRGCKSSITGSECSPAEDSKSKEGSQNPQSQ

Usually IC50 stands for the concentration needed to halve the response being measured. For the compound `CC[C@H](C)[C@H](N)C1=N[C@H](C(=O)N[C@@H](CC(C)C)C(=O)N[C@H](CCC(=O)O)C(=O)N[C@H](C(=O)N[C@H]2CCCCNC(=O)[C@H](CC(N)=O)NC(=O)[C@@H](CC(=O)O)NC(=O)[C@H](Cc3cnc[nH]3)NC(=O)[C@@H](Cc3ccccc3)NC(=O)[C@H]([C@@H](C)CC)NC(=O)[C@@H](CCCN)NC2=O)[C@@H](C)CC)CS1` [BACITRACIN] ({Ileψ(thiazoline)Cys}-L[dE]IK[dOrn]I[dF]H[dD]N; lactam 4-C), the half-inhibitory concentration (IC50) entry in [1], in data set [2] (erythrocyte), in data set [3], in data set [4], in [5] and in data set [6] was “Not Active” in each case. The IC50 result in [7], in data set [8], in [9], in data set [10], in data set [11] and in [12] was “Not Active” throughout. Moreover, the Ki result in data set [1], in data set [3], in data set [4], in data set [10] and in [11] was “Not Active” in each case.
In the case of `CCOC(=O)c1ccc(N)cc1` [BENZOCAINE], the IC50 result in data set [1], in data set [2] (erythrocyte), in [3], in [4], in data set [5] and in data set [6] was “Not Active” each time. Further, the IC50 entry in data set [7], in [8], in data set [9], in data set [10], in data set [11] and in data set [12] was “Not Active” throughout. Also, the Ki result in [1], in data set [3], in [4], in data set [10] and in data set [11] was “Not Active” throughout.
On to `OCc1ccccc1` [BENZYL ALCOHOL], for which the IC50 result in data set [1], in data set [2] (erythrocyte), in data set [3], in data set [4], in [5] and in data set [6] was “Not Active” in each case. Moreover, the IC50 entry in data set [7], in data set [8], in data set [9], in data set [10], in data set [11] and in [12] was “Not Active” each time. The Ki result in data set [1], in data set [3], in [4], in [10] and in data set [11] was “Not Active” each time.
Consider `CCCC[C@@H](CC)COC(=O)c1ccccc1C(=O)OC[C@@H](CC)CCCC` [BIS(2-ETHYLHEXYL)PHTHALATE], for which the half-inhibitory concentration (IC50) entry is “Not Active” in data set [1]; 66.9 µM in data set [2] (read-out: IC50); “Not Active” in data set [3]; “Not Active” in data set [4]; “Not Active” in data set [5]; “Not Active” in data set [6]. In addition, the IC50 entry in data set [7], in data set [8], in data set [9], in data set [10], in [11] and in data set [12] was “Not Active” each time. Further, the Ki entry in data set [1], in [3], in [4], in data set [10] and in [11] was “Not Active” throughout.
Take `Oc1c(Cl)cc(Cl)cc1Sc1cc(Cl)cc(Cl)c1O` [BITHIONOL]: the 50% inhibitory concentration (IC50) entry in [1], in data set [2] (erythrocyte), in [3], in data set [4], in data set [5] and in data set [6] was “Not Active” each time. The IC50 result in [7], in [8], in data set [9], in data set [10], in [11] and in data set [12] was “Not Active” each time. Also, the Ki result in data set [1], in data set [3], in [4], in data set [10] and in data set [11] was “Not Active” throughout.
For the compound `Brc1ccccc1` [BROMOBENZENE], the IC50 result in data set [1], in [2] (erythrocyte), in [3], in data set [4], in data set [5] and in [6] was “Not Active” throughout. In addition, the IC50 result in [7], in data set [8], in data set [9], in data set [10], in [11] and in data set [12] was “Not Active” each time. The Ki entry in [1], in data set [3], in [4], in data set [10] and in [11] was “Not Active” each time.
As for `CC[C@@]1(O)C(=O)OCc2c1cc1n(c2=O)Cc2cc3ccccc3nc2-1` [CAMPTOTHECIN], the IC50 entry in data set [1], in data set [2] (erythrocyte), in data set [3], in data set [4], in data set [5] and in data set [6] was “Not Active” each time. Further, the IC50 entry in data set [7], in [8], in [9], in data set [10], in [11] and in data set [12] was “Not Active” throughout. For the same compound, the Ki result in [1], in [3], in data set [4], in [10] and in data set [11] was “Not Active” each time.
